Read-outs that look alike come from different tables or passages of the source.
Molecular target: Human Factor D (Homo sapiens (Human), UniProt P00746)
Test: Human Factor D Assay
Assay type: biochemical
Method in brief: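 Factor D (from human serum) 80 nM final + cpd, 5 min RT, 50 mM Tris/1M NaCl pH 7.5; add Z-L-Lys-SBzl 100 μM and DTNB 100 μM final. IC50 by nonlinear fit of rates vs [cpd].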

[1] = Table 3, Human Factor D 80 nM, substrate Z-L-Lys-SBzl, read-out: IC50 (Stars)
[2] = Human Factor D 80 nM, substrate Z-L-Lys-SBzl, read-out: IC50
[3] = Human Factor D assay of Example 8, Table 2, read-out: IC50
[4] = Human Factor D, Table 3, read-out: IC50

Sequence of Human Factor D (P00746 26-253): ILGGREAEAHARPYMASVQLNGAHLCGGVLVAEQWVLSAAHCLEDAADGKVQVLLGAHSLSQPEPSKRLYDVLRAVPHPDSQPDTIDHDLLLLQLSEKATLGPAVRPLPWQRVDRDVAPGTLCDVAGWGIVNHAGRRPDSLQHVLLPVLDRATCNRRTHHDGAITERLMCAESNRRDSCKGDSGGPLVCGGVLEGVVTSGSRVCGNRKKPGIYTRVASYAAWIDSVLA

**Q.** For `CC(=O)c1nn(CC(=O)N2C[C@H](F)C[C@H]2C(=O)Nc2ccn(CC(F)(F)F)n2)c2ccc(-c3cnc(C)nc3)cc12` [Compound 357, (2S,4R)-1-(2-(3-Acetyl-5-(2-methylpyrimidin-5-yl)-1H-indazol-1-yl)acetyl)-4-fluoro-N-(1-(2,2,2-trifluoroethyl)-1H-pyrazol-3-yl)pyrrolidine-2-carboxamide], which IC50 [1] is on record?
**A.** < 1 µM

**Q.** With `NC(=O)c1nn(CC(=O)N2C[C@H](F)C[C@H]2C(=O)Nc2ccc(O)cn2)c2ccc(-c3ccnnc3)cc12` [Compound 176, 1-(2-((2S,4R)-4-fluoro-2-(5-hydroxypyridin-2-ylcarbamoyl)pyrrolidin-1-yl)-2-oxoethyl)-5-(pyridazin-4-yl)-1H-indazole-3-carboxamide] as the compound, how does the IC50 [2] read?
**A.** > 10 µM

**Q.** For `CC(=O)c1nn(CC(=O)N2[C@@H]3C[C@@H]3C[C@H]2C(=O)Nc2nc(Br)ccc2C)c2ccc(-c3cnc(N)nc3)cc12` [Compound 446, (1R,3S,5R)-2-(2-(3-Acetyl-5-(2-aminopyrimidin-5-yl)-1H-indazol-1-yl)acetyl)-N-(6-bromo-3-methylpyridin-2-yl)-2-azabicyclo[3.1.0]hexane-3-carboxamide], which IC50 [1] is on record?
**A.** < 1 µM

**Q.** With `CC(=O)c1nn(CC(=O)N2C[C@H](F)C[C@H]2C(=O)Nc2cccc(Br)n2)c2ccc(-c3cnc4cc(C(=O)O)nn4c3)cc12` [Compound 289, 6-(3-acetyl-1-(2-((2S,4R)-2-(6-bromopyridin-2-ylcarbamoyl)-4-fluoropyrrolidin-1-yl)-2-oxoethyl)-1H-indazol-5-yl)pyrazolo[1,5-a]pyrimidine-2-carboxylic acid] as the compound, how does the IC50 [3] read?
**A.** < 1 µM

**Q.** For `CO[C@H]1[C@@H](C(=O)Nc2cccc(Br)n2)N(C(=O)Cn2nc(C(C)=O)c3cc(-c4cnc(C)nc4)ccc32)C[C@@H]1F` [Compound 393, (2S,3S,4S)-1-(2-(3-Acetyl-5-(2-methylpyrimidin-5-yl)-1H-indazol-1-yl)acetyl)-N-(6-bromopyridin-2-yl)-4-fluoro-3-methoxypyrrolidine-2-carboxamide], which IC50 [1] is on record?
**A.** < 1 µM

**Q.** For `CC(=O)c1cn(CC(=O)N2C[C@H](F)C[C@H]2C(=O)Nc2n[nH]c(C)c2-c2ccccc2)c2ccc(-c3ccnnc3)cc12` [Compound 169, (2S,4R)-1-(2-(3-acetyl-5-(pyridazin-4-yl)-1H-indol-1-yl)acetyl)-4-fluoro-N-(5-methyl-4-phenyl-1H-pyrazol-3-yl)pyrrolidine-2-carboxamide], which IC50 [2] is on record?
**A.** < 1 µM

**Q.** For `CC(=O)c1nn(CC(=O)N2CC[C@H]2C(=O)Nc2cccc(C)n2)c2ccc(-c3cnc4n3CCCC4)cc12` [Compound 705, (S)-1-(2-(3-Acetyl-5-(5,6,7,8-tetrahydroimidazo[1,2-a]pyridin-3-yl)-1H-indazol-1-yl)acetyl)-N-(6-methylpyridin-2-yl)azetidine-2-carboxamide], which IC50 [4] is on record?
**A.** > 10 µM

**Q.** For `COc1cc(Br)nc(NC(=O)[C@@H]2C[C@@]3(C)C[C@H]3N2C(=O)Cn2nc(C(C)=O)c3cc(-c4cnc(C)nc4)ccc32)c1` [Compound 484, (1R,3S,5R)-2-(2-(3-Acetyl-5-(2-methylpyrimidin-5-yl)-1H-indazol-1-yl)acetyl)-N-(6-bromo-4-methoxypyridin-2-yl)-5-methyl-2-azabicyclo[3.1.0]hexane-3-carboxamide], which IC50 [1] is on record?
**A.** < 1 µM

**Q.** `CC(=O)c1cn(CC(=O)N2C[C@H](F)C[C@H]2C(=O)Nc2cccc(C(F)(F)F)n2)c2ccc(-c3cnc4cc(C)nn4c3)cc12` [Compound 301, (2S,4R)-1-(2-(3-acetyl-5-(2-methylpyrazolo[1,5-a]pyrimidin-6-yl)-1H-indol-1-yl)acetyl)-4-fluoro-N-(6-(trifluoromethyl)pyridin-2-yl)pyrrolidine-2-carboxamide] was tested. Which IC50 [3] did it give?
**A.** < 1 µM

**Q.** `CC(=O)c1nn(CC(=O)N2C[C@H]3C[C@H]3[C@H]2C(=O)Nc2nc(Br)ccc2C)c2ccc(-c3cnc(N)nc3)cc12` [Compound 635, (1R,2S,5S)-3-(2-(3-Acetyl-5-(2-aminopyrimidin-5-yl)-1H-indazol-1-yl)acetyl)-N-(6-bromo-3-methylpyridin-2-yl)-3-azabicyclo[3.1.0]hexane-2-carboxamide] was tested. Which IC50 [4] did it give?
**A.** < 1 µM

**Q.** With `CC(=O)c1cn(CC(=O)N2C[C@H](F)C[C@H]2C(=O)Nc2cncc(Br)c2)c2ccc(-c3ccnnc3)cc12` [Compound 68, (2S,4R)-1-(2-(3-acetyl-5-(pyridazin-4-yl)-1H-indol-1-yl)acetyl)-N-(5-bromopyridin-3-yl)-4-fluoropyrrolidine-2-carboxamide] as the compound, how does the IC50 [2] read?
**A.** < 1 µM

**Q.** Which IC50 [4] does the source give for `CC(=O)c1nn(CC(=O)N2C[C@@](F)(CF)CC2C(=O)Nc2nc(Br)ccc2C)c2ccc(-c3cnc(N)nc3)cc12` (stereo in doubt) [Compound 579, (2S,4R)-1-(2-(3-acetyl-5-(2-aminopyrimidin-5-yl)-1H-indazol-1-yl)acetyl)-N-(6-bromo-3-methylpyridin-2-yl)-4-fluoro-4-(fluoromethyl) pyrrolidine-2-carboxamide] here?
**A.** < 1 µM

**Q.** `CC(=O)c1cn(CC(=O)N2C[C@H](F)C[C@H]2C(=O)Nc2ccc(CNC(=O)OCC3c4ccccc4-c4ccccc43)cc2)c2ccc(-c3ccnnc3)cc12` [Compound 61] was tested. Which IC50 [2] did it give?
**A.** > 10 µM

**Q.** Which IC50 [3] does the source give for `CC(=O)c1nn(CC(=O)N2C[C@H](F)C[C@H]2C(=O)Nc2cccc(F)n2)c2ccc(-c3cnc(C)nc3)cc12` [Compound 247, (2S,4R)-1-(2-(3-acetyl-5-(2-methylpyrimidin-5-yl)-1H-indazol-1-yl)acetyl)-4-fluoro-N-(6-fluoropyridin-2-yl)pyrrolidine-2-carboxamide] here?
**A.** < 1 µM

**Q.** How did the IC50 [2] turn out when `CC(=O)c1cn(CC(=O)N2C[C@H](F)C[C@H]2C(=O)Nc2cccc(-c3ccccc3Cl)c2F)c2ccc(N3CCN(C(C)=O)CC3)cc12` [Compound 16, (2S,4R)-1-(2-(3-acetyl-5-(4-acetylpiperazin-1-yl)-1H-indol-1-yl)acetyl)-N-(2′-chloro-2-fluorobiphenyl-3-yl)-4-fluoropyrrolidine-2-carboxamide] was run?
**A.** < 1 µM

**Q.** How did the IC50 [2] turn out when `CC(=O)c1cn(CC(=O)N2C[C@H](F)C[C@H]2C(=O)Nc2cccc(-c3ccccc3Cl)c2F)c2ccc(N3CCN(c4ncccn4)CC3)cc12` [Compound 31, (2S,4R)-1-(2-(3-acetyl-5-(4-(pyrimidin-2-yl)piperazin-1-yl)-1H-indol-1-yl)acetyl)-N-(2′-chloro-2-fluorobiphenyl-3-yl)-4-fluoropyrrolidine-2-carboxamide] was run?
**A.** < 1 µM

**Q.** With `CCc1ncc(-c2ccc3c(c2)c(C(C)=O)nn3CC(=O)N2C[C@H](F)C[C@H]2C(=O)Nc2cccc(Br)n2)cn1` [Compound 566, (2S,4R)-1-(2-(3-Acetyl-5-(2-ethylpyrimidin-5-yl)-1H-indazol-1-yl)acetyl)-N-(6-bromopyridin-2-yl)-4-fluoropyrrolidine-2-carboxamide] as the compound, how does the IC50 [4] read?
**A.** < 1 µM

**Q.** Which IC50 [4] does the source give for `CC(=O)c1nn(CC(=O)N2C[C@H](F)C[C@H]2C(=O)Nc2cccc(OC(F)(F)F)c2F)c2ccc(-c3cnc(N)nc3)cc12` [Compound 563, (2S,4R)-1-(2-(3-Acetyl-5-(2-aminopyrimidin-5-yl)-1H-indazol-1-yl)acetyl)-4-fluoro-N-(2-fluoro-3-(trifluoromethoxy)phenyl)pyrrolidine-2-carboxamide] here?
**A.** < 1 µM

**Q.** How did the IC50 [3] turn out when `COCCOCCNC(=O)c1cc2ncc(-c3ccc4c(c3)c(C(C)=O)nn4CC(=O)N3C[C@H](F)C[C@H]3C(=O)Nc3cccc(Br)n3)cn2n1` [Compound 290, 6-(3-acetyl-1-(2-((2S,4R)-2-(6-bromopyridin-2-ylcarbamoyl)-4-fluoropyrrolidin-1-yl)-2-oxoethyl)-1H-indazol-5-yl)-N-(2-(2-methoxyethoxy)ethyl)pyrazolo[1,5-a]pyrimidine-2-carboxamide] was run?
**A.** < 1 µM

**Q.** `CC(=O)c1nn(CC(=O)N2CC[C@H]2C(=O)Nc2cccc(C)n2)c2ccc(-c3ccc4c(c3)CCC4)cc12` [Compound 573, (S)-1-(2-(3-Acetyl-5-(2,3-dihydro-1H-inden-5-yl)-1H-indazol-1-yl)acetyl)-N-(6-methylpyridin-2-yl)azetidine-2-carboxamide] was tested. Which IC50 [4] did it give?
**A.** > 10 µM

**Q.** For `CC(=O)c1nn(CC(=O)N2C[C@H](F)C[C@H]2C(=O)Nc2cccc(Br)[n+]2[O-])c2ccc(-c3cnc(C)nc3)cc12` [Compound 743, 2-((2S,4R)-1-(2-(3-Acetyl-5-(2-methylpyrimidin-5-yl)-1H-indazol-1-yl)acetyl)-4-fluoropyrrolidine-2-carboxamido)-6-bromopyridine 1-oxide], which IC50 is on record?
**A.** 1 to 10 µM

**Q.** Which IC50 [2] does the source give for `NC(=O)c1nn(CC(=O)N2C[C@H](F)C[C@H]2C(=O)Nc2cccc(-c3ccccc3Cl)c2F)c2ccc(-c3cn[nH]c3)cc12` [Compound 1] here?
**A.** < 1 µM

**Q.** `CC(=O)N1CC=C(c2cn(CC(=O)N3C[C@H](F)C[C@H]3C(=O)Nc3cccc(Br)n3)nc2C(N)=O)CC1` [Compound 727, 4-(1-acetyl-1,2,3,6-Tetrahydropyridin-4-yl)-1-(2-((2S,4R)-2-((6-bromopyridin-2-yl)carbamoyl)-4-fluoropyrrolidin-1-yl)-2-oxoethyl)-1H-pyrazole-3-carboxamide] was tested. Which IC50 [4] did it give?
**A.** > 10 µM

**Q.** For `CC(=O)c1cn(CC(=O)N2C[C@H](F)C[C@H]2C(=O)Nc2cccc(OC(F)(F)F)c2F)c2ccc(-c3cnc4ccnn4c3)cc12` [Compound 224, (2S,4R)-1-(2-(3-acetyl-5-(pyrazolo[1,5-a]pyrimidin-6-yl)-1H-indol-1-yl)acetyl)-4-fluoro-N-(2-fluoro-3-(trifluoromethoxy)phenyl)pyrrolidine-2-carboxamide], which IC50 [3] is on record?
**A.** < 1 µM

**Q.** Which IC50 [1] does the source give for `CC(=O)c1nn(CC(=O)N2C[C@H](F)C[C@H]2C(=O)Nc2cncc(Cl)n2)c2ccc(-c3cnc(C)nc3)cc12` [Compound 368, (2S,4R)-1-(2-(3-Acetyl-5-(2-methylpyrimidin-5-yl)-1H-indazol-1-yl)acetyl)-N-(6-chloropyrazin-2-yl)-4-fluoropyrrolidine-2-carboxamide] here?
**A.** < 1 µM

**Q.** Which IC50 [3] does the source give for `COc1cc2c(cc1-c1cnc(C)nc1)c(C(C)=O)cn2CC(=O)N1C[C@H](F)C[C@H]1C(=O)Nc1cccc(Br)n1` [Compound 319, (2S,4R)-1-(2-(3-Acetyl-6-methoxy-5-(2-methylpyrimidin-5-yl)-1H-indol-1-yl)acetyl)-N-(6-bromopyridin-2-yl)-4-fluoropyrrolidine-2-carboxamide] here?
**A.** < 1 µM
